# Measurements taken from PubChem BioAssay AID1918954 (Molecular Pharmacology Branch, DTP, NCI, 2023).
# Test system: MDA-MB-468 complex spheroids with HUVEC/MSC, viability
# Assay: Anticancer human tumor MDA-MB-468 cell line growth inhibition;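 also: spheroids exposed to agents for seven days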;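 as to viability, T/C: 100% = DMSO vehicle control viability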
# Details: for IC50: curve of first compound; for viability, T/C: stronger effect = lower value
# Method in brief: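 Drug combinations with the LSD1 inhibitor iadademstat tested on tumor cells co-cultured as spheroids with endothelial cells and mesenchymal stem cells. Concentrations descended in half-log increments from clinical Cmax or 10 microM.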
# [1] = second compound 0.1 µM, first compound 0.0316 µM
# [2] = second compound 0.1 µM, first compound 0.1 µM
# [3] = second compound 0.316 µM, first compound 0.0316 µM
# [4] = second compound 0.316 µM, first compound 0.1 µM
# [5] = second compound 1 µM, first compound 0.0316 µM
# [6] = second compound 1 µM, first compound 0.1 µM
# [7] = second compound 3.16 µM, first compound 0.0316 µM
# [8] = second compound 3.16 µM, first compound 0.1 µM
# [9] = second compound 10 µM, first compound 0.0316 µM
# [10] = second compound 10 µM, first compound 0.1 µM
smiles,measurement,setting,value
CCc1c2c(nc3ccc(O)cc13)-c1cc3c(c(=O)n1C2)COC(=O)[C@]3(O)CC + NC1CC1c1ccc(-c2cccc(O)c2)cc1,IC50,second compound 0.1 µM,< 0.949 nM
same,IC50,second compound 0.316 µM,< 0.949 nM
same,IC50,second compound 1 µM,< 0.949 nM
same,IC50,second compound 3.16 µM,< 0.949 nM
same,IC50,second compound 10 µM,< 0.949 nM
same,"viability, T/C","second compound 0.1 µM, first compound 0.000949 µM",4.36%
same,"viability, T/C","second compound 0.1 µM, first compound 0.003 µM",3.78%
same,"viability, T/C","second compound 0.1 µM, first compound 0.00949 µM",2.14%
same,"viability, T/C","second compound 0.1 µM, first compound 0.03 µM",0.44%
same,"viability, T/C","second compound 0.1 µM, first compound 0.0949 µM",0.43%
same,"viability, T/C","second compound 0.1 µM, first compound 0.3 µM",0.53%
same,"viability, T/C","second compound 0.316 µM, first compound 0.000949 µM",4.17%
same,"viability, T/C","second compound 0.316 µM, first compound 0.003 µM",3.69%
same,"viability, T/C","second compound 0.316 µM, first compound 0.00949 µM",1.95%
same,"viability, T/C","second compound 0.316 µM, first compound 0.03 µM",0.43%
same,"viability, T/C","second compound 0.316 µM, first compound 0.0949 µM",0.4%
same,"viability, T/C","second compound 0.316 µM, first compound 0.3 µM",0.49%
same,"viability, T/C","second compound 1 µM, first compound 0.000949 µM",3.6%
same,"viability, T/C","second compound 1 µM, first compound 0.003 µM",3.54%
same,"viability, T/C","second compound 1 µM, first compound 0.00949 µM",2.31%
same,"viability, T/C","second compound 1 µM, first compound 0.03 µM",0.52%
same,"viability, T/C","second compound 1 µM, first compound 0.0949 µM",0.36%
same,"viability, T/C","second compound 1 µM, first compound 0.3 µM",0.52%
same,"viability, T/C","second compound 3.16 µM, first compound 0.000949 µM",4.14%
same,"viability, T/C","second compound 3.16 µM, first compound 0.003 µM",3.66%
same,"viability, T/C","second compound 3.16 µM, first compound 0.00949 µM",2.43%
same,"viability, T/C","second compound 3.16 µM, first compound 0.03 µM",0.36%
same,"viability, T/C","second compound 3.16 µM, first compound 0.0949 µM",0.43%
same,"viability, T/C","second compound 3.16 µM, first compound 0.3 µM",0.47%
same,"viability, T/C","second compound 10 µM, first compound 0.000949 µM",4.14%
same,"viability, T/C","second compound 10 µM, first compound 0.003 µM",3.24%
same,"viability, T/C","second compound 10 µM, first compound 0.00949 µM",2.07%
same,"viability, T/C","second compound 10 µM, first compound 0.03 µM",0.38%
same,"viability, T/C","second compound 10 µM, first compound 0.0949 µM",0.56%
same,"viability, T/C","second compound 10 µM, first compound 0.3 µM",0.6%
CC[C@@]1(O)C(=O)OCc2c1cc1n(c2=O)Cc2cc3c(CN(C)C)c(O)ccc3nc2-1 + NC1CCC(NC2CC2c2ccccc2)CC1,IC50,second compound 0.1 µM,0.706 nM
same,IC50,second compound 0.316 µM,0.777 nM
same,IC50,second compound 1 µM,0.752 nM
same,IC50,second compound 3.16 µM,0.62 nM
same,IC50,second compound 10 µM,< 0.316 nM
same,"viability, T/C","second compound 0.1 µM, first compound 0.000316 µM",78%
same,"viability, T/C","second compound 0.1 µM, first compound 0.001 µM",37.9%
same,"viability, T/C","second compound 0.1 µM, first compound 0.00316 µM",13.1%
same,"viability, T/C","second compound 0.1 µM, first compound 0.01 µM",7.64%
same,"viability, T/C",[1],6.65%
same,"viability, T/C",[2],4.69%
same,"viability, T/C","second compound 0.316 µM, first compound 0.000316 µM",83.4%
same,"viability, T/C","second compound 0.316 µM, first compound 0.001 µM",40.8%
same,"viability, T/C","second compound 0.316 µM, first compound 0.00316 µM",12.7%
same,"viability, T/C","second compound 0.316 µM, first compound 0.01 µM",8.5%
same,"viability, T/C",[3],4.51%
same,"viability, T/C",[4],4.68%
same,"viability, T/C","second compound 1 µM, first compound 0.000316 µM",89.1%
same,"viability, T/C","second compound 1 µM, first compound 0.001 µM",37.3%
same,"viability, T/C","second compound 1 µM, first compound 0.00316 µM",12.6%
same,"viability, T/C","second compound 1 µM, first compound 0.01 µM",8.19%
same,"viability, T/C",[5],6.26%
same,"viability, T/C",[6],5.19%
same,"viability, T/C","second compound 3.16 µM, first compound 0.000316 µM",64.5%
same,"viability, T/C","second compound 3.16 µM, first compound 0.001 µM",40%
same,"viability, T/C","second compound 3.16 µM, first compound 0.00316 µM",15.2%
same,"viability, T/C","second compound 3.16 µM, first compound 0.01 µM",11.4%
same,"viability, T/C",[7],5.77%
same,"viability, T/C",[8],6.13%
same,"viability, T/C","second compound 10 µM, first compound 0.000316 µM",49.7%
same,"viability, T/C","second compound 10 µM, first compound 0.001 µM",40.8%
same,"viability, T/C","second compound 10 µM, first compound 0.00316 µM",14.1%
same,"viability, T/C","second compound 10 µM, first compound 0.01 µM",8.51%
same,"viability, T/C",[9],6.13%
same,"viability, T/C",[10],6.82%
CC(C)c1c(-c2ccccc2)nc2c(C#N)c[nH]n2c1=O + NC1CC1c1ccc(-c2cccc(O)c2)cc1,IC50,second compound 0.1 µM,> 10000 nM
same,IC50,second compound 0.316 µM,> 10000 nM
same,IC50,second compound 1 µM,> 10000 nM
same,IC50,second compound 3.16 µM,> 10000 nM
same,IC50,second compound 10 µM,> 10000 nM
same,"viability, T/C",[1],91.7%
same,"viability, T/C",[2],89.1%
same,"viability, T/C","second compound 0.1 µM, first compound 0.316 µM",94.4%
same,"viability, T/C","second compound 0.1 µM, first compound 1 µM",96%
same,"viability, T/C","second compound 0.1 µM, first compound 3.16 µM",96.7%
same,"viability, T/C","second compound 0.1 µM, first compound 10 µM",84.1%
same,"viability, T/C",[3],89.2%
same,"viability, T/C",[4],82.6%
same,"viability, T/C","second compound 0.316 µM, first compound 0.316 µM",92.5%
same,"viability, T/C","second compound 0.316 µM, first compound 1 µM",91.4%
same,"viability, T/C","second compound 0.316 µM, first compound 3.16 µM",89.4%
same,"viability, T/C","second compound 0.316 µM, first compound 10 µM",87.9%
same,"viability, T/C",[5],89.1%
same,"viability, T/C",[6],88%
same,"viability, T/C","second compound 1 µM, first compound 0.316 µM",86.7%
same,"viability, T/C","second compound 1 µM, first compound 1 µM",102%
same,"viability, T/C","second compound 1 µM, first compound 3.16 µM",89.7%
same,"viability, T/C","second compound 1 µM, first compound 10 µM",79.5%
same,"viability, T/C",[7],102%
same,"viability, T/C",[8],83.5%
same,"viability, T/C","second compound 3.16 µM, first compound 0.316 µM",87.6%
same,"viability, T/C","second compound 3.16 µM, first compound 1 µM",88.2%
same,"viability, T/C","second compound 3.16 µM, first compound 3.16 µM",81.3%
same,"viability, T/C","second compound 3.16 µM, first compound 10 µM",74.7%
same,"viability, T/C",[9],66.7%
same,"viability, T/C",[10],67%
same,"viability, T/C","second compound 10 µM, first compound 0.316 µM",59.3%
same,"viability, T/C","second compound 10 µM, first compound 1 µM",57.2%
same,"viability, T/C","second compound 10 µM, first compound 3.16 µM",67.1%
same,"viability, T/C","second compound 10 µM, first compound 10 µM",49.4%
